Measurements: US8883680B2, “Herbicide combinations with particular sulphonyl ureas” (Bayer Cropscience AG, priority 2006, dated 2014)

Legend:
Assay type in all cases: in vivo
[1] = tested on: Acacia farnesiana; experiment: Herbicidal action against woody shrub weeds (greenhouse trials); details: Vachellia farnesiana, 672 h
Method: (§1) The seeds or rhizome pieces of typical harmful plants were placed into sandy loam soil in round pots, size 13, covered with soil and grown in a greenhouse under good growth conditions. After the harmful plants had emerged, they were treated, as a rule at the 2- to 3-leaf stage, with various dosages of the compositions according to the invention at a water application rate of 100 to 400 I/ha (converted).
(§2) After the treatment (approx. 4 weeks after application), the herbidical activity of the active compounds or active compound mixtures was scored visually by comparing the treated plants with untreated controls. Damage and development of all above-ground parts of the plants was recorded. Scoring was done on a percentage scale (100% action=all plants dead; 50% action=50% of the plants and green plant parts dead; 0% action=no discernible action).
(§3) The results are listed in the tables below, where the activity measured for the independent use of the active compounds (A) and (B) is stated in brackets.
(§4) The plants were cultivated to the 5- to 6-leaf stage. Herbicide application and scoring of the trial were carried out as in Example 1.

[2] = tested on: Mimosa pigra; experiment: as above; details: 672 h
Method: as §1, §2, §3, §4

[3] = tested on: Lamium amplexicaule; experiment: Herbicidal action against weeds (greenhouse trials), post-emergence; details: 672 h, 2- to 3-leaf stage, scored visually approx. 4 weeks after application
Method: as §1, §2, §3

[4] = tested on: Veronica persica; experiment: as above; details: 672 h, 2- to 3-leaf stage, scored visually approx. 4 weeks after application
Method: as §1, §2, §3

[5] = application rate 40 g of ai/ha, 5- to 6-leaf stage, scored visually approx. 4 weeks after application

`Nc1cc(Cl)nc(C(=O)O)c1Cl` [Aminopyralid, 4-amino-3,6-dichloropyridine-2-carboxylic acid] was tested. Which inhibition at 60 g/ha ([1]; read-out: Acacia farnesiana % activity) did it give?
Its inhibition at 60 g/ha is 55%.

What about the inhibition at 60 g/ha ([2]; read-out: Mimosa pigra % activity) of the same compound?
Its inhibition at 60 g/ha is 73%.

`COc1cc(OC)nc(NC(=O)NS(=O)(=O)N(C)S(C)(=O)=O)n1` [Amidosulfuron, 1-(4,6-dimethoxypyrimidin-2-yl)-3-mesyl(methyl)sulfamoylurea] was tested. Which inhibition at 40 g/ha [1, 5] did it give?
Its inhibition at 40 g/ha is 43%.

And the inhibition at 40 g/ha [2, 5]?
Its inhibition at 40 g/ha is 20%.

And the inhibition at 20 g/ha ([3]; application rate 20 g of ai/ha)?
Its inhibition at 20 g/ha is 18%.

What about the inhibition at 20 g/ha ([4]; application rate 20 g of ai/ha) of the same compound?
The inhibition at 20 g/ha was 20%.

Which inhibition at 60 g/ha ([3]; application rate 60 g of ai/ha) does the source give for `Nc1c(Cl)c(Cl)nc(C(=O)O)c1Cl` [Picloram, 4-amino-3,5,6-trichloropyridine-2-carboxylic acid] here?
The inhibition at 60 g/ha was 75%.

And the inhibition at 60 g/ha ([4]; application rate 60 g of ai/ha)?
Its inhibition at 60 g/ha is 62%.
